Several values for one entry are separate records, joined by “and”; a condition that tells them apart may be missing. Equal values may be shown once.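 Following 48 hours of exposure in 96-well plates, responses at five concentrations were used to interpolate endpoints linearly. Here, GI50 denotes the concentration required for 50% inhibition of growth. TGI: total growth inhibition.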
Columns and labels:
Assay in all cases: DTP human tumour cell line panel, 48 h
[1] = test system: BT-549 breast
[2] = test system: CCRF-CEM leukemia
[3] = test system: NCI-H226 lung
[4] = test system: NCI-H460 lung
[5] = test system: PC-3 prostate
[6] = test system: RPMI-8226 leukemia
[7] = test system: SF-539 CNS
[8] = test system: SK-MEL-5 melanoma
[9] = test system: SK-OV-3 ovarian
[10] = test system: UACC-62 melanoma

Structure (SMILES)	GI50 [1] [µM]	TGI [1] [µM]	GI50 [2] [µM]	TGI [2] [µM]	GI50 [3] [µM]	TGI [3] [µM]	GI50 [4] [µM]	TGI [4] [µM]	GI50 [5] [µM]	TGI [5] [µM]	GI50 [6] [µM]	TGI [6] [µM]	GI50 [7] [µM]	TGI [7]	GI50 [8]	TGI [8] [µM]	GI50 [9] [µM]	TGI [9]	GI50 [10] [µM]	TGI [10]
CCCCNC(=O)NS(=O)(=O)c1ccc(N2N=C(c3cc(C)ccc3C)CC2c2cc(OC)c(OC)c(OC)c2)cc1 (configuration not stated)	2.73	9.28	2.2	6.12	3.29	13	2.46	5.96	1.94	10.4	1.95	5.49	1.9	3.88 µM	2.54 µM	7.01	3.53	10.1 µM	1.83	4.27 µM
C/C=C/[C@@H]1OC(=O)C2=C[C@@H](O)[C@@H](/C=C/C)O[C@H]21	2.31	8.67	0.271	5.77	6.17	13.9	25.6	63.7	13.9	28.2	1.14	3.76	1.1	3.49 µM	9.03 µM	23.8	20.5	36.6 µM	13.9	28.9 µM
CC(C)c1ccc(Nc2nccc(-c3cnn4ncccc34)n2)cc1	0.967	> 25	0.703	> 20.5	0.227	2.45	0.496	4.95	0.615	> 12.3	0.466	2.56	0.481	1.68 µM	0.218 µM	0.749	0.93	2.89 µM	0.326	1.13 µM
CSc1ccccc1C#Cc1ccccc1C#CCCCCO	13.3	26.6	10.3	46.5	19	43.6	8.64	22.2	16.2	38	6.79	46.6	13.5	27.2 µM	14 µM	27.6	15.8	30.1 µM	13	25.7 µM
OCC1OC(n2cnc3c(=S)nc[nH]c32)C(O)C1O (configuration not stated)	62.7	> 2500	3.35	> 2500	> 31.1	> 2500	7.72	> 2500	6.71	> 2500	2.57	> 2500	3.3	> 2500 µM	9.5 µM	> 2500	1.25	1060 µM and > 47.4 µM	3.56	1910 µM and > 100 µM
CC12CC(OC(=O)[C@]1(C)O)[C@@H]([C@]1(O)CC[C@H]3[C@@H]4C[C@H]5O[C@]56[C@@H](O)C=CC(=O)[C@]6(C)[C@H]4CC[C@@]31C)C2 (some centres not stated)		9.57		7.16		> 100		32.3		26.5				7.29 µM		17.8		> 100 µM		37.2 µM
O=C(N/N=C/c1cc([N+](=O)[O-])ccc1O)c1cccc2ccccc12	1.63	23.7	0.905	38.6	2.45	11.5	2.75	> 100	6.85	64.9	3.35	62.2	3.8	24.2 µM	3.15 µM	14.3	4	33.3 µM	2.98	26.4 µM
Cc1ccc2c(c1)C(=O)c1c-2n(CCCBr)c(=O)c2cc([N+](=O)[O-])ccc12	> 100	> 100	5.29	46.4	96.9	> 100	6.43	> 100	17.4	> 100	19.2	> 100	> 100	> 100 µM	33 µM	> 100	> 100	> 100 µM	26.1	> 100 µM
Nc1n[nH]c2ccc([C@@H]3Nc4ccc5[nH]ncc5c4[C@H]4C5C=CC(C5)[C@@H]34)cc12 (some centres not stated)	0.32	7.05	0.342	> 55.6	0.636	10.6	0.365	11.4	0.407	22.7	0.355	11.5	0.271	1.1 µM	0.338 µM	1.58	1.03	42.8 µM	0.213	18.5 µM
COC(=O)C(F)C(Br)C(=O)OC (configuration not stated)		31		2.29		43.4		39.3		10.1		3.88		20.4 µM		34		34.6 µM		30.4 µM
O=C(OCCBr)c1ccc(Cl)c([N+](=O)[O-])c1	18.1	33.1	15.6	38.7	17.7	37.6	14.9	33.5	5.23	12.8	7.09	19	19.6	36 µM	14.9 µM	28.5	17.2	31 µM	14.5	28.5 µM
Clc1nc(Cl)c(-c2ccccc2)c(Cl)n1		7.09		8.28		5.76		35.9		16.5		6.16		10.9 µM		9.36		23.3 µM		10.7 µM
COc1cc(C2C3=C(COC3=O)Nc3cc4c(cc32)CCC4)cc2c1OCO2 (configuration not stated)	0.311	42.2	0.0452	14.6	0.0391	1.6	0.0394	6.18	0.049	18.2	0.0531	> 49.2	0.0328	8.73 µM	0.0382 µM	0.264	0.0335	1.01 µM	0.051	17.7 µM
CC(=O)O[C@H]1CC[C@@]2(C)[C@@H](CC[C@@H]3[C@@H]2CC[C@]2(C)C=C(C=O)C[C@@H]32)C1	12.1	32.3	2.48	6.75	28.8	> 100	20.6	42.4	6.53	27.5	2.74	8.16	3.66	12.7 µM	3.56 µM	14.4	9.67	21.7 µM		
Cn1cc(-c2ccc(-c3cn(C)c4ccc(Cl)cc34)s2)c2cc(Cl)ccc21	> 100	> 100	> 100	> 100	> 100	> 100	> 100	> 100	> 100	> 100	> 100	> 100	> 100	> 100 µM	> 100 µM	> 100	> 100	> 100 µM	> 100	> 100 µM
Nc1ccc(-c2ccc(N)cc2I)c(I)c1	13.8	36.1	8.14	43.3	17.2	45.4	19.4	39.3	16.3	47.6	14	37.7	14.5	32.2 µM	13.9 µM	27.2	17	44.4 µM	12.1	33.2 µM
CC(C)N1C(NNC(=O)c2cnccn2)=NS(=O)(=O)c2ccccc21	> 100	> 100	1.33	6.3	> 100	> 100	> 100	> 100	> 100	> 100	> 100	> 100	> 100	> 100 µM	> 100 µM	> 100	> 100	> 100 µM	> 100	> 100 µM
COc1cc(C2CC(c3ccc(N(C)C)cc3)=NN2C(C)=O)cc(OC)c1OC (configuration not stated)	2.53	> 100	8.17	> 100	6.46	> 100	1.41	> 100	1.42	> 100	3.77	> 39.3	1.35	5.34 µM	0.804 µM	17.6	5.46	> 100 µM	1.48	> 100 µM
C=C1CCC2C3(C)COC(c4ccccc4Br)OC3CCC2(C)C1C/C=C1/C(=O)OCC1OC(C)=O (configuration not stated)	1.7	3.71	0.381	3.96	1.64	3.42	1.74	3.29	1.63	3.76	0.645	6.52	1.53	2.86 µM	1.6 µM	2.98	2.85	6.78 µM	1.42	2.86 µM
c1ccc(P(CCP(CCP(c2ccccc2)c2ccccc2)c2ccccc2)CCP(c2ccccc2)c2ccccc2)cc1 (configuration not stated)		> 10		> 10		> 10		3.12	> 10	> 10		> 10		> 10 µM and 9.84 µM	> 10 µM and 4.12 µM	> 10		> 10 µM		> 10 µM
CCCCN(CCCC)c1ccc(C(=NC(C)CCCN(CC)CC)c2ccc(N(C)C)cc2)cc1 (configuration not stated)	0.838	1.73	1.22	3.87	1.18	3.06	0.842	1.64	0.885	1.93	0.95	2.19	0.899	1.72 µM	0.806 µM	1.5	1.14	2.33 µM	0.909	1.91 µM
O=C(CN(/C=C/C(=O)C(F)(F)F)c1ccccc1)c1ccc(Cl)c(Cl)c1	10.9	29.5	11.2	29.2	13.7	27.9	17.5	44.9	13.3	26.9	13.9	40.2	18	39.8 µM	13.2 µM	26.3	21.1	40.1 µM	9.43	21.3 µM
O=C(CCCSc1nc(-c2ccccc2)cc(-c2ccc(Cl)cc2)n1)NO	3.46	17.6	0.882	13	3.12	17.1	0.558	7.29	2.19	12.3	1.65	8.42	1.61	4.06 µM	2.26 µM	5.45	3.12	12.4 µM	1.45	3.89 µM
O=C(c1cccnc1)c1cc(-c2ccccn2)c(=O)n2ccccc12	> 100	> 100	> 100	> 100	> 100	> 100	> 100	> 100	> 100	> 100	> 100	> 100	> 100	> 100 µM	> 100 µM	> 100	> 100	> 100 µM	> 100	> 100 µM
N=C(N)c1ccc(COc2ccccc2OCc2ccc(C(=N)N)cc2)cc1	34.8	76.7	33.1	> 100	28.6	81	20.9	> 100	36.3	> 100	16.6	99.3	14	34.6 µM	17.1 µM	44.5	> 100	> 100 µM	34.2	> 100 µM
CCN(CC)c1ccc(C(=N)c2ccc(N(C)C)cc2)cc1	0.227	0.966	1.96	97.8	1.5	5.46	1.69	10.8	0.284	7.05			1.63	4.18 µM	0.159 µM	1.94	2.15	10.4 µM	1.35	7.03 µM

From PubChem BioAssay (NCI)
